Measured values from BindingDB's records for doi:10.7270/Q2FX7CM7 (n/a, 1993).

Target: DNA gyrase A/A/B/B tetramer (Escherichia coli (strain K12), UniProt P0AES4+P0AES6)
Assay: In vitro antibacterial activity was determined as inhibitory concentration causing 50% DNA-gyrase supercoiling inhibition (SCI)

C[C@H]1COc2c(N3CCN(C)CC3)c(F)cc3c(=O)c(C(=O)O)cn1c23 [9-fluoro-3-methyl-10-(4-methylpiperazin-1-yl)-7-oxo-2,3-dihydro-7H-[1,4]oxazino[2,3,4-ij]quinoline-6-carboxylic acid]
IC50: 4.98 µM
